# Test results from US20120238554A1, “SALTS OF POTASSIUM ATP CHANNEL OPENERS AND USES THEREOF” (priority 2007, published 2012).
# What was measured:
# [1] = tested on: person with pulmonary hypertension; conditions: oral diazoxide over six years; cited from earlier work
# [2] = tested on: barbital-anesthetized open-chest pigs; conditions: 3.5 mg/kg IV, 30 min occlusion, 3 h reflow, n=7; cited from earlier work
# [3] = tested on: patients with primary pulmonary hypertension; conditions: cited from earlier work
# [4] = Slurry studies of inter-conversion of the solid form; conditions: room temperature, no light, 14 days; water, isopropyl alcohol, dichloromethane, toluene
# [5] = Moisture sorption analysis; assay type: physicochemical
# Experimental: Moisture Sorption Analysis was performed with a Hiden IGAsorp Moisture Sorption Instrument, Samples were first dried at 0% relative humidity at 25° C. until an equilibrium weight was reached, or for a maximum of 4 hours. Samples were then subjected to an isothermal (25° C.) scan from 10-90% relative humidity in steps of 10%. The samples were allowed to equilibrate to an asymptotic weight at each point for a maximum of 4 hours. Following absorption, a desorption scan from […] relative humidity (at 25° C.) was run in steps of −10%, again allowing a maximum of 4 hours for the samples to equilibrate. The resulting samples after desorption were dried at 80° C. for two hours and analyzed by XRPD.
# [6] = tested on: cardiomyocytes from the infarct border zone; conditions: cardiomyocytes from the infarct border zone (74 ms without, sham 41 ms); cited from earlier work
# [7] = Form conversion and degradation under thermal stress (60° C.); conditions: 60° C., closed, protected from light, 7 and 14 days
# Experimental: Studies were also conducted to evaluate the likelihood for conversion and degradation under thermal stress.
# [8] = tested on: patients with elevated fasting triglycerides; assay: Diazoxide treatment of hypertriglyceridemia, 7 to 49 days: fasting triglycerides, LDL-cholesterol; assay type: in vivo, human; conditions: for fasting triglycerides reduced: titrated patients
# Experimental: All patients were dosed once per day for an uninterrupted period of time.
# Patients were placed on a low fat diet at the start of treatment which continued to the end of treatment.
# Each subject's baseline circulating triglyceride level was calculated as the average of two measurements of fasting triglycerides taken approximately two weeks apart, with the second taken predose on the first day of treatment.
# [9] = tested on: Zucker Diabetic Fatty (ZDF) rats; conditions: 150 mg/kg/day, 8 weeks; cited from earlier work
# obese subjects = assay: Single 200 mg dose study: fasting glucose, insulin, NEFA, serum Na, K, creatinine; conditions: either formulation
# Experimental: Three exploratory endpoints were evaluated in the study. Blood glucose, insulin and non-esterified fatty acids (NEFA) were measured prior to dosing and at 1, 3, 6, 9, 12, 24, and 48 hours post dosing. Blood glucose and insulin levels were also assessed at end of study. Data collected at times 1, 3, 24, and 48 hours after dose administration were obtained under fasting conditions. The remaining data points were post-prandial measures.
# [10] = Solubility in 100 mM phosphate buffer with titration, 18 h slurry (Table 15); assay type: physicochemical; conditions: thermodynamic from solid, ambient
# Experimental: Each determination was carried out in duplicate, slurrying each sample in a 100 mM phosphate buffer solution, pH 7.00. […] After this time all samples were centrifuged, and the supernatant was diluted with mobile phase (MeCN/Water.).
structure (smiles),measurement,setting,value
"CC1=NS(=O)(=O)c2cc(Cl)ccc2N1 [diazoxide, 7-chloro-3-methyl-2H-1,2,4-benzothiadiazine 1,1 dioxide]",pulmonary arterial pressure,[1],reduced to normal levels
same,Infarct size (percentage of the area at risk),[2],14.6±7.4%
same,change in pulmonary artery pressure,"[3]; injected into the pulmonary artery, nine patients",no significant change
same,patients unable to tolerate the drug,[3]; oral diazoxide given to seven patients,Five
same,inter-conversion of the solid form in slurry,[4],did not convert to alternate crystal forms
same,crystalline form after moisture sorption/desorption (XRPD),[5],same crystalline form
same,hydrate formation (hysteresis upon desorption),[5]; 25° C.,does not form a stable hydrate
same,Moisture Sorption (hygroscopicity),"[5]; 25° C., listed as free form diazoxide",non-hygroscopic
same,water absorbed,"[5]; 60% RH, 25° C.",approximately 0.04 wt %
same,water absorbed,"[5]; 90% RH, 25° C.",~0.20 wt %
same,action potential duration,[6],42 ms
same,"form conversion and degradation under thermal stress (XRPD, DSC)",[7],no conversion or degradation
same,reductions in fasting triglycerides,"[8]; 100 mg per day diazoxide equivalent as Diazoxide Choline Controlled-Release Tablets, 7 days",38%
same,reductions in fasting triglycerides,"[8]; 100 mg per day diazoxide equivalent, 14 days",18%
same,reductions in fasting triglycerides,"[8]; 150 mg for 5 days then 300 mg for 9 days, at 7 and 14 days",50%
same,reductions in fasting triglycerides,"[8]; 200 mg per day diazoxide equivalent, 7 days",23%
same,reductions in fasting triglycerides,"[8]; 200 mg per day diazoxide equivalent, 14 days",20%
same,reductions in fasting triglycerides,"[8]; 300 mg per day diazoxide equivalent, 7 days",18%
same,reductions in fasting triglycerides,"[8]; 300 mg per day diazoxide equivalent, 14 days",29%
same,reductions in fasting triglycerides,"[8]; 400 mg per day diazoxide equivalent, 7 days",50%
same,rise in LDL-cholesterol,"[8]; Patient 13, day 21",6.7%
same,rise in LDL-cholesterol,"[8]; Patient 13, day 42",11%
same,reductions in LDL-cholesterol,[8]; patient 8,−8.6%
same,reductions in LDL-cholesterol,[8]; patient 9,−15.3%
same,fasting triglycerides reduced,[8]; end of treatment with 150 mg,21%
same,fasting triglycerides reduced,[8]; end of treatment with 200 mg,31%
same,fasting triglycerides reduced,[8]; end of treatment with 250 mg,38%
same,fasting triglycerides reduced,[8]; end of treatment with 300 mg,38%
same,fasting triglycerides reduced,[8]; end of treatment with 350 mg,49%
same,"hepatic triglycerides, long chain acyl-CoA and cholesterol contents",[9],decreased
same,fasting glucose,obese subjects; 24 or 48 hours after dose administration,no evidence for a significant increase in fasting glucose
same,fasting insulin,obese subjects; after the single 200 mg dose,no evidence for a reduction in fasting insulin
same,solubility at 18 h,"[10]; pH 6.9, aqueous buffer, pH after slurry 6.90",70 µg/mL
same,solubility at 18 h,"[10]; pH 7.31, aqueous buffer, pH after slurry 7.31",70 µg/mL
